From US9458212B2, “Nanoparticles containing a peptide, vectors containing said nanoparticles, and pharmaceutical uses of said nanoparticles and vectors” (CENTRE NATIONAL DE LA RECHERCHE SCIENTIFIQUE (C.N.R.S.), priority 2008, dated 2016)
Non-standard residues stand in square brackets, D forms with d. No end group written: not given here. pS = N[C@@H](COP(=O)(O)O)C(=O)O

How the values were obtained:
mice = experiment: Intranasal administration of peptide P140 in mice; format: in vivo
Description: At present, the peptide P140 is administered by subcutaneous injection, which is not a comfortable mode of administration for the patient. Several other modes of administration have thus been tested. For instance, intranasal administration has been tested in mice but is not effective.

[1] = system: T cells present in the lymph nodes draining the site of administration; experiment: Subcutaneous immunization of BALB/c mice; ex vivo proliferation and cytokine secretion of lymph node cells stimulated with peptide P140; details: s.c., in the presence of CFA
Description: Eur. J. Immunol. 33, 287-296].
Female BALB/c mice aged 7 weeks old (4 groups of two mice) are immunized subcutaneously in the flanks with different formulations. […] The mice having received peptide in its free form or in the form of nanoparticles all received the same quantity of peptide, namely 100 μg per mouse.
One week after the immunization, the mice are sacrificed and samples are taken from the lymph nodes of the flank and of the foreleg. The cells issuing from these lymph nodes are cultured ex vivo in a proportion of 5.10^5 cells per well in the presence of different peptide concentrations (0, 6, 20 and 60 μM) so as to study their proliferation and also the secretion of cytokines.
The Th cells are classified into sub-populations, Th1 or Th2, depending on the cytokines that they produce and the function that they perform. Cells of type Th-1 produce in particular interleukin-2 (IL-2) and interferon-γ (IFN-γ), whereas cells of type Th-2 secrete essentially IL-4, IL-5, IL-6, IL-10 and IL-13. The immunization conditions used here, that is to say the use of CFA, encourage the development of a response of type Th1. Therefore, only the secretion of IL-2 and IFN-γ was studied.

[2] = system: T cells present in the lymph nodes draining the site of administration; details: with adjuvant, BALB/c mice, Monneaux et al. 2003; cited from earlier work

## peptide P140: 21 amino acid peptide RIHMVYSKRSGKPRGYAFIEY, serine in position 10 phosphorylated (SEQ ID NO: 1) (RIHMVYSKR[pS]GKPRGYAFIEY; listed as Homo sapiens)
mice
  efficacy of intranasal administration: not effective
[1]; 100 μg peptide per mouse, cells cultured with 0, 6, 20, 60 μM peptide
  stimulation indices (proliferation): positive and dose-dependent
[1]
  cytokine secretion (IL-2, IFN-γ): dose-dependent responses
[2]
  T cell response after s.c. administration in the presence of adjuvant: activation of the auxiliary T cells Th
